The target of the assay is T1, Rev-Erb alpha (Homo sapiens, UniProt P20393).
T1 sequence (P20393 284-614 limits assumed): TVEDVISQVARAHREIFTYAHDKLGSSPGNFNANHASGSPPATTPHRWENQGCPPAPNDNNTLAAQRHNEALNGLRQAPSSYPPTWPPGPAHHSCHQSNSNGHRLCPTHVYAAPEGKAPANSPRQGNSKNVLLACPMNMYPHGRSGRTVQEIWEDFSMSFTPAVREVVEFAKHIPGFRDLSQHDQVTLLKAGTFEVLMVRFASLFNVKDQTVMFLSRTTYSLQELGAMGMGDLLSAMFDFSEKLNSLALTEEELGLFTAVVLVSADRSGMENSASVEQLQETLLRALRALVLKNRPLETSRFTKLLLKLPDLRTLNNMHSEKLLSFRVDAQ
Put plainly: M2H (mammalian two-hybrid) cellular activation assay of Rev-Erb alpha. To be noted: M2H assay, HEK293 cells; for EC50: Gal4-Rev-Erb alpha / VP16-NCoR, luciferase reporter; for Emax: relative to DMSO, at the tested dose, read-out: TOP activation. The format is cell-based. As for the experimental part: In this system, Rev-Erb alpha or Rev-Erb beta is expressed as a fusion to the Gal4 DNA-binding domain and the cofactor NCoR is expressed as a fusion to the activation domain of the Herpes Simplex Virus tegument protein VP16. These fusion proteins were included in plasmids at a concentration of 1 μg/μL. The pBS-SK+ vector was added to the preparation to adjust the DNA quantity to a fixed value for each condition.
The transfection mix (Jet-PEI protocol, Polyplus transfection) comprised: • 3 mL of Jet PEI Mix (180 μL Jet-Pei and NaCl at 150 mM) and • 3 mL of the DNA Mix or of the DNA Mix control (wherein the Gal4-Rev-Erb alpha plasmid was replaced by a pGal4phi plasmid).
DNA Mix comprised 1.2 mL of DNA and 1.8 mL of NaCl at 150 mM with, in a T225 flask: • 90 ng of Gal4-Rev-Erb alpha, or 90 ng of Gal4-Rev-Erb beta, • 4500 ng of VP16-NCoR, • 27000 ng of Gal4-RE and • 13410 ng of pBS-SK+. Cells
HEK293 cells were cultured in DMEM (Invitrogen 41965) comprising 10% FBS, P/S, 1% glutamine, 1% pyruvate (Invitrogen 11360) and 1% amino acids (Invitrogen 11140). Cells were then batch co-transfected with plasmid vectors (described in the table above) using as Jet-PEI as reagent (Polyplus) following the protocol specified below.
The 6 mL-transfection mix was transferred in a T225 flask. HEK293 cells were then added at a concentration of 12 Millions of cells for 54 mL of medium (DMEM comprising 10% FBS and 1% P/S). Cells incubated over-night at 37° C. and under 5% CO2.
This cell-based assay is performed using 384-well Greiner white plates (Reference 781080). After the incubation, cells were rinsed with PBS, trypsinized, centrifuged and resuspended in free-serum DMEM without phenol red (Invitrogen 31053). Cells were counted and adjusted to 0.5 Million per mL and plated at a concentration of 10,000 cells in 20 μL per well. They were incubated a minimum of 4 hours at 37° C. under 5% CO2. Cells were treated with 20 μL of the compound to analyze (concentration of 2× diluted in DMEM without FBS containing a maximum of 1% DMSO) and incubated over-night (18 hours, 37° C. and 5% CO2). Each compound has been tested at 6 different concentrations to depict a dose-effect allowing the measure of biochemical parameters such as EC50 and TOP activation (%).
Cells were incubated 30 minutes with 40 μL/well of Steady Glow (Promega) and luminescence was read with TECAN Genios Pro (100 ms/w). Four experiments were carried out for each compound.
Each compound has been tested at 6 different concentrations to depict a dose-effect allowing the measure of biochemical parameters such as EC50 and TOP activation (%).
The mammalian two-hybrid system (M2H) assay consists herein in studying the ability of compounds according to the invention to activate Rev-Erbalpha in cells and thus modulate the interaction with its corepressor. The interaction of the two proteins is assessed with the help of the Luciferase reporter gene. HEK293 cells were transfected with two gene constructions: Gal4-RE VP16-NCoR and Gal4-Rev-Erbalpha or with Gal4-RE, sVP16-NCoR and Gal4-Rev-Erb beta.
The ability of compounds according to the invention of activating Rev-Erbalpha alpha or Rev-Erb beta was assessed in the described cell-based assay. EC50 and TOP activation (%) were measured.

This passage reports EC50 and Emax results from patent US9586963B2 (GENFIT, priority 2011, dated 2017).

Structures can show the parent of a compound that is named as a salt.

Turning to `Cc1ncccc1-c1ccc(C(F)(F)F)cc1Oc1ccc2nnc(Cl)n2n1` [Cpd.4-123, 3-chloro-6-(2-(2-methylpyridin-3-yl)-5-(trifluoromethyl)phenoxy)-[1,2,4]triazolo[4,3-b]pyridazine], the EC50 is 100 to 1000 nM.

Consider `CN1CCN(Cc2ccc(C(F)(F)F)cc2Oc2ccc3nnc(Cl)n3n2)CC1` [Cpd.4-124, 3-chloro-6-(2-((4-methylpiperazin-1-yl)methyl)-5-(trifluoromethyl)phenoxy)-[1,2,4]triazolo[4,3-b]pyridazine], for which the EC50 is above 6000 nM and the Emax was above 130%.

In turn, `COc1ncc(-c2ccc(C(F)(F)F)cc2Oc2ccc3nnc(Cl)n3n2)cn1` [Cpd.4-127, 3-chloro-6-((2-(2-methoxypyrimidin-5-yl))-5-(trifluoromethyl)phenoxy)-[1,2,4]triazolo[4,3-b]pyridazine] gave an EC50 of 1000 to 6000 nM.

Take `CC(C)c1ncncc1-c1ccc(C(F)(F)F)cc1Oc1ccc2nnc(Cl)n2n1` [Cpd.4-128, 3-chloro-6-((2-(4-isopropylpyrimidin-5-yl))-5-(trifluoromethyl)phenoxy)-[1,2,4]triazolo[4,3-b]pyridazine]: the EC50 lay within 1000 to 6000 nM.

For the compound `FC(F)(F)c1cccc(Oc2ccc3nnc(Cl)n3n2)c1-c1cccnc1` [Cpd.4-129, 3-chloro-6-(2-(pyridin-3-yl)-3-(trifluoromethyl)phenoxy)-[1,2,4]triazolo[4,3-b]pyridazine], the EC50 fell in the range of 1000 to 6000 nM.

`Cc1cccc(-c2ccccc2Oc2ccc3nnc(C(F)(F)F)n3n2)c1` [Cpd.4-133, 3-(trifluoromethyl)-6-(3′-methylbiphenyl-2-yloxy)-[1,2,4]triazolo[4,3-b]pyridazine] showed a concentration for a half-maximal effect (EC50) of 100 to 1000 nM.

As for `O=[N+]([O-])c1ccc(Oc2ccc3nnc(Cl)n3n2)c(-c2ccccc2)c1` [Cpd.4-134, 3-chloro-6-(5-nitrobiphenyl-2-yloxy)-[1,2,4]triazolo[4,3-b]pyridazine], the EC50 was in the range of 1000 to 6000 nM.

`Cc1cccc(-c2cc(F)ccc2Oc2ccc3nnc(C(F)(F)F)n3n2)c1` [Cpd.4-136, 3-(trifluoromethyl)-6-(5-fluoro-3′-methylbiphenyl-2-yloxy)-[1,2,4]triazolo[4,3-b]pyridazine] yielded an EC50 of 100 to 1000 nM.

In turn, `Cc1ccc(-c2cc(F)ccc2Oc2ccc3nnc(C(F)(F)F)n3n2)cc1` [Cpd.4-142, 3-(trifluoromethyl)-6-(5-fluoro-4′-methylbiphenyl-2-yloxy)-[1,2,4]triazolo[4,3-b]pyridazine] yielded an EC50 of 1000 to 6000 nM.

`Cc1ccc(-c2cc(F)ccc2Oc2ccc3nnc(Cl)n3n2)cc1` [Cpd.4-143, 3-chloro-6-(5-fluoro-4′-methylbiphenyl-2-yloxy)-[1,2,4]triazolo[4,3-b]pyridazine] returned an EC50 of 100 to 1000 nM.

As to `Oc1cccc(-c2cc(F)c(F)cc2Oc2ccc3nnc(Cl)n3n2)c1` [Cpd.4-153, 3-chloro-6-(4,5-difluoro-3′-hydroxybiphenyl-2-yloxy)-[1,2,4]triazolo[4,3-b]pyridazine], the EC50 was 1000 to 6000 nM.

Take `OCc1ccc(-c2ccccc2)c(Oc2ccc3nnc(Cl)n3n2)c1` [Cpd.4-155, 3-chloro-6-(4-(hydroxymethyl)biphenyl-2-yloxy)-[1,2,4]triazolo[4,3-b]pyridazine]: the EC50 is 1000 to 6000 nM.

`CCN(CC)Cc1ccc(Oc2ccc3nnc(Cl)n3n2)c(-c2ccccc2)c1` [Cpd.4-157, 3-chloro-6-(5-diethylaminomethylbiphenyl-2-yloxy)-[1,2,4]triazolo[4,3-b]pyridazine]: the EC50 is above 6000 nM and the Emax is above 130%.

Turning to `CN1CCN(Cc2ccc(Oc3ccc4nnc(Cl)n4n3)c(-c3ccccc3)c2)CC1` [Cpd.4-159, 3-chloro-6-(5-(4-methylpiperazin-1-ylmethyl)biphenyl-2-yloxy)-[1,2,4]triazolo[4,3-b]pyridazine], the concentration for a half-maximal effect (EC50) was above 6000 nM and the Emax is above 130%.

Compound `Clc1nnc2ccc(Oc3ccc(CNC4CCCC4)cc3-c3ccccc3)nn12` [Cpd.4-160, 3-chloro-6-(5-(cyclopentylaminomethyl)biphenyl-2-yloxy)-[1,2,4]triazolo[4,3-b]pyridazine] yielded a 50% effective concentration (EC50) of 1000 to 6000 nM.

As to `Clc1nnc2ccc(Oc3ccc(CNCC4CCCO4)cc3-c3ccccc3)nn12` (centres unmarked) [Cpd.4-163, 3-chloro-6-(5-(tetrahydrofurfurylaminomethyl)biphenyl-2-yloxy)-[1,2,4]triazolo[4,3-b]pyridazine], the EC50 is above 6000 nM and the Emax was above 130%.

Take `CS(=O)(=O)N1CCN(Cc2ccc(Oc3ccc4nnc(Cl)n4n3)c(-c3ccccc3)c2)CC1` [Cpd.4-164, 3-chloro-6-(5-(4-methanesulfonyl-piperazin-1-ylmethyl)biphenyl-2-yloxy)-[1,2,4]triazolo[4,3-b]pyridazine]: the EC50 fell in the range of 1000 to 6000 nM.

Consider `FC(F)(F)c1ccc(-c2cccc(CNC3CC3)c2)c(Oc2ccc3nnc(Cl)n3n2)c1` [Cpd.4-168, 3-chloro-6-(4-(trifluoromethyl)-3′-(cyclopropylaminomethyl)biphenyl-2-yloxy)-[1,2,4]triazolo[4,3-b]pyridazine, hydrochloride], for which the EC50 was 1000 to 6000 nM.

`N#Cc1ccc(-c2ccccc2)c(Oc2ccc3nnc(Cl)n3n2)c1` [Cpd.4-169, 3-chloro-6-(4-cyanobiphenyl-2-yloxy)-[1,2,4]triazolo[4,3-b]pyridazine] yielded an EC50 of 100 to 1000 nM.

Consider `CC(C)(C)OC(=O)NCc1ccc(Oc2ccc3nnc(Cl)n3n2)c(-c2ccccc2)c1` [Cpd.4-170, 3-chloro-6-(5-(tertbutyloxycarbonylaminomethyl)biphenyl-2-yloxy)-[1,2,4]triazolo[4,3-b]pyridazine], for which the 50% effective concentration (EC50) was in the range of 100 to 1000 nM.

For the compound `NCc1ccc(Oc2ccc3nnc(Cl)n3n2)c(-c2ccccc2)c1` [Cpd.4-171, 3-chloro-6-(5-aminomethylbiphenyl-2-yloxy)-[1,2,4]triazolo[4,3-b]pyridazine, trifluoroacetic acid salt], the EC50 is above 6000 nM and the Emax was above 130%.

Consider `CC(=O)OCc1ccc(-c2ccccc2)c(Oc2ccc3nnc(Cl)n3n2)c1` [Cpd.4-172, 3-chloro-6-(4-methylcarbonyloxymethylbiphenyl-2-yloxy)-[1,2,4]triazolo[4,3-b]pyridazine], for which the EC50 lay in the range of 100 to 1000 nM.

Compound `CS(=O)(=O)Nc1ccc(Oc2ccc3nnc(Cl)n3n2)c(-c2ccccc2)c1` [Cpd.4-173, 3-chloro-6-(5-methylsulfonamidobiphenyl-2-yloxy)-[1,2,4]triazolo[4,3-b]pyridazine] gave an EC50 of 1000 to 6000 nM.

`CC(=O)Nc1ccc(Oc2ccc3nnc(Cl)n3n2)c(-c2ccccc2)c1` [Cpd.4-174, 3-chloro-6-(5-acetamidobiphenyl-2-yloxy)-[1,2,4]triazolo[4,3-b]pyridazine] displayed an EC50 of 1000 to 6000 nM.

Take `Clc1nnc2ccc(Oc3cc(CNCC4CCCCC4)ccc3-c3ccccc3)nn12` [Cpd.4-176, 3-chloro-6-(4-(cyclohexylmethyl)aminomethylbiphenyl-2-yloxy)-[1,2,4]triazolo[4,3-b]pyridazine]: the EC50 lay in the range of 1000 to 6000 nM.

As for `CN1CCN(Cc2ccc(-c3ccccc3)c(Oc3ccc4nnc(Cl)n4n3)c2)CC1` [Cpd.4-177, 3-chloro-6-(4-(1-methylpiperazin-4-ylmethyl)biphenyl-2-yloxy)-[1,2,4]triazolo[4,3-b]pyridazine], the EC50 is above 6000 nM and the Emax is above 130%.
